Patent US20220332701A1, “HETEROCYCLIC COMPOUNDS AS BCR-ABL INHIBITORS” (ASCENTAGE PHARMA (SUZHOU) CO., LTD., priority 2019, published 2022)

Columns and labels:
[1] = molecular target: BaF3(T315I) (Homo sapiens, UniProt P00519, T315I, cells depend on it); assay: WST (CCK-8) anti-proliferation assay, BaF3 T315I cells; details: read-out: BaF3(T315I); anti-proliferative IC50, 72 h treatment, CCK-8, BaF3 T315I
[2] = molecular target: BaF3(WT) (Homo sapiens, UniProt P00519); assay: WST (CCK-8) anti-proliferation assay, BaF3 WT cells; details: read-out: BaF3(WT); anti-proliferative IC50, 72 h treatment, CCK-8, BaF3 WT

Row | GI50 [1] [nM] | GI50 [2] [nM] | SMILES
1 | 366 | 85 | CC(C)N1CC(CN(C)C)c2cc(C(=O)Nc3ccc(OC(F)(F)Cl)cc3)cc(-c3ccn[nH]3)c21 (centres unmarked) [VII-27, N-(4-(chlorodifluoromethoxy)phenyl)-3-((dimethylamino)methyl)-1-isopropyl-7-(1H-pyrazol-5-yl)indoline-5-carboxamide]
2 | 168 | 46 | CC(C)N1CC(C)(CO)c2cc(C(=O)Nc3ccc(OC(F)(F)Cl)cc3)cc(-c3ccn[nH]3)c21 (centres unmarked) [VII-41, N-(4-(chlorodifluoromethoxy)phenyl)-3-(hydroxymethyl)-1-isopropyl-3-methyl-7-(1H-pyrazol-5-yl)indoline-5-carboxamide]
3 | 223 | 20 | CC1CN(C(C)C)c2c(-c3ccn[nH]3)cc(C(=O)Nc3ccc(OC(F)(F)Cl)cc3)cc21 (centres unmarked) [VII-38, N-(4-(chlorodifluoromethoxy)phenyl)-1-isopropyl-3-methyl-7-(1H-pyrazol-5-yl)indoline-5-carboxamide]
4 | 1610 | 158 | CC(C)N1c2c(cc(C(=O)Nc3ccc(OC(F)(F)Cl)cc3)cc2-c2cncnc2)CC1C(=O)O (centres unmarked) [VII-21, 5-((4-(chlorodifluoromethoxy)phenyl)carbamoyl)-1-isopropyl-7-(pyrimidin-5-yl)indoline-2-carboxylic acid]
5 | 3680 | 458 | CN1C(=O)C(C)(C)c2cc(C(=O)Nc3ccc(OC(F)(F)Cl)cc3)cc(-c3ccn[nH]3)c21 [VIII-1, N-(4-(chlorodifluoromethoxy)phenyl)-1,3,3-trimethyl-2-oxo-7-(1H-pyrazol-5-yl)indoline-5-carboxamide]
6 | 250 | 112 | O=C(Nc1ccc(OC(F)(F)Cl)cc1)c1cc2c(c(-c3ccn[nH]3)c1)N(CCO)CC2 [VII-6, N-(4-(chlorodifluoromethoxy)phenyl)-1-(2-hydroxyethyl)-7-(1H-pyrazol-5-yl) indoline-5-carboxamide]
7 | 163 | 49 | CC(C)N1c2c(cc(C(=O)Nc3ccc(OC(F)(F)Cl)cc3)cc2-c2ccn[nH]2)CC1C(=O)N1CCN(C)CC1 (centres unmarked) [VII-33, N-(4-(chlorodifluoromethoxy)phenyl)-1-isopropyl-2-(4-methylpiperazine-1-carbonyl)-7-(1H-pyrazol-5-yl)indoline-5-carboxamide]
8 | 552 | 82 | CC(C)n1cc(CO)c2cc(C(=O)Nc3ccc(OC(F)(F)Cl)cc3)cc(-c3cncnc3)c21 [XII-7, N-(4-(chlorodifluoromethoxy)phenyl)-3-(hydroxymethyl)-1-isopropyl-7-(pyrimidin-5-yl)-1H-indole-5-carboxamide]
9 | 256 | 20 | CC(C)N1CC(C)(C)c2cc(C(=O)Nc3ccc(OC(F)(F)Cl)cc3)cc(-c3ccn[nH]3)c21 [VII-40, N-(4-(chlorodifluoromethoxy)phenyl)-1-isopropyl-3,3-dimethyl-7-(1H-pyrazol-5-yl)indoline-5-carboxamide]
10 | 272 | 29 | O=C(Nc1ccc(OC(F)(F)Cl)cc1)c1cc2c(c(-c3ccn[nH]3)c1)N(C1CCCC1)CC2 [VII-2, N-(4-(chlorodifluoromethoxy)phenyl)-1-cyclopentyl-7-(1H-pyrazol-5-yl) indoline-5-carboxamide]
11 | 511 | 22 | Cc1cn(C(C)C)c2c(-c3ccn[nH]3)cc(C(=O)Nc3ccc(OC(F)(F)Cl)cc3)cc12 [XII-6, N-(4-(chlorodifluoromethoxy)phenyl)-1-isopropyl-3-methyl-7-(1H-pyrazol-5-yl)-1H-indole-5-carboxamide]
12 | 199 | 39 | CC(C)N1c2c(cc(C(=O)Nc3ccc(OC(F)(F)Cl)cc3)cc2-c2ccn[nH]2)CC1C(=O)N(C)C (centres unmarked) [VII-26, N5-(4-(chlorodifluoromethoxy)phenyl)-1-isopropyl-N2,N2-dimethyl-7-(1H-pyrazol-5-yl)indoline-2,5-dicarboxamide]
13 | 3840 | 1160 | CC(C)C(=O)N1CCc2cc(C(=O)Nc3ccc(OC(F)(F)Cl)cc3)cc(-c3ccn[nH]3)c21 [VII-10, N-(4-(chlorodifluoromethoxy)phenyl)-1-isobutyryl-7-(1H-pyrazol-5-yl) indoline-5-carboxamide]
14 | 654 | 115 | CC(C)n1ccc2cc(C(=O)Nc3ccc(OC(F)(F)Cl)cc3)cc(-c3ccn[nH]3)c21 [XII-1, N-(4-(chlorodifluoromethoxy)phenyl)-1-isopropyl-7-(1H-pyrazol-5-yl)-1H-indole-5-carboxamide]
15 | 940 | 113 | CC(C)N1c2c(cc(C(=O)Nc3ccc(OC(F)(F)Cl)cc3)cc2-c2ccn[nH]2)CC1C(=O)N1CC[C@@H](O)C1 (stereo partly drawn) [VII-29, N-(4-(chlorodifluoromethoxy)phenyl)-2-((R)-3-hydroxypyrrolidine-1-carbonyl)-1-isopropyl-7-(1H-pyrazol-5-yl)indoline-5-carboxamide]
16 | 660 | 56 | CC(C)N1c2c(cc(C(=O)Nc3ccc(OC(F)(F)Cl)cc3)cc2-c2cncnc2)CC1C(=O)N1CC(O)C1 (centres unmarked) [VII-14, N-(4-(chlorodifluoromethoxy)phenyl)-2-(3-hydroxyazetidine-1-carbonyl)-1-isopropyl-7-(pyrimidin-5-yl)indoline-5-carboxamide]

Further lines, the compound ahead of its results:

Row | SMILES | GI50 [1] [nM] | GI50 [2] [nM]
17 | CN1C(=O)C(C)(C)c2c(-c3ccn[nH]3)cc(C(=O)Nc3ccc(OC(F)(F)Cl)cc3)cc21 [V-2, N-(4-(chlorodifluoromethoxy)phenyl)-1,3,3-trimethyl-2-oxo-4-(1H-pyrazol-5-yl)indoline-6-carboxamide] | 354 | 55
18 | CC1(C)c2c(cc(C(=O)Nc3ccc(OC(F)(F)Cl)cc3)cc2-c2ccn[nH]2)C(=O)N1CCN1CCS(=O)(=O)CC1 [IV-7, N-(4-(chlorodifluoromethoxy)phenyl)-2-(2-(1,1-dioxidothiomorpholino)ethyl)-1,1-dimethyl-3-oxo-7-(1H-pyrazol-5-yl)isoindoline-5-carboxamide] | 1750 | 364
19 | CN1C(=O)c2cc(C(=O)Nc3ccc(OC(F)(F)Cl)cc3)cc(-c3ccncc3)c2C1(C)C [IV-4, N-(4-(chlorodifluoromethoxy)phenyl)-1,1,2-trimethyl-3-oxo-7-(pyridin-4-yl)isoindoline-5-carboxamide] | 581 | 129
20 | CC(C)N1CC(C)(C)Oc2cc(C(=O)Nc3ccc(OC(F)(F)Cl)cc3)cc(-c3ccn[nH]3)c21 [IX-5, N-(4-(chlorodifluoromethoxy)phenyl)-4-isopropyl-2,2-dimethyl-5-(1H-pyrazol-5-yl)-3,4-dihydro-2H-benzo[b][1,4]oxazine-7-carboxamide] | 333 | 17
21 | CC(C)N1CCCCc2cc(C(=O)Nc3ccc(OC(F)(F)Cl)cc3)cc(-c3ccn[nH]3)c21 [X-1, N-(4-(chlorodifluoromethoxy)phenyl)-1-isopropyl-9-(1H-pyrazol-5-yl)-2,3,4,5-tetrahydro-1H-benzo[b]azepine-7-carboxamide] | 1290 | 67
22 | CC1(C)c2c(cc(C(=O)Nc3ccc(OC(F)(F)Cl)cc3)cc2-c2ccn[nH]2)C(=O)N1CCN1CC[C@@H](O)C1 [IV-8, (R)—N-(4-(chlorodifluoromethoxy)phenyl)-2-(2-(3-hydroxypyrrolidin-1-yl)ethyl)-1,1-dimethyl-3-oxo-7-(1H-pyrazol-5-yl)isoindoline-5-carboxamide] | 6020 | 100
23 | CC1(C)C(=O)N(CCO)c2cc(C(=O)Nc3ccc(OC(F)(F)Cl)cc3)cc(-c3ccn[nH]3)c21 [V-6, N-(4-(chlorodifluoromethoxy)phenyl)-1-(2-hydroxyethyl)-3,3-dimethyl-2-oxo-4-(1H-pyrazol-5-yl)indoline-6-carboxamide] | 2860 | 364
24 | CN1C(=O)c2cc(C(=O)Nc3ccc(OC(F)(F)Cl)cc3)cc(-c3ccn[nH]3)c2C1(C)C [IV-1, N-(4-(chlorodifluoromethoxy)phenyl)-1,1,2-trimethyl-3-oxo-7-(1H-pyrazol-5-yl)isoindoline-5-carboxamide] | 244 | 24
25 | O=C(Nc1ccc(OC(F)(F)Cl)cc1)c1cc2c(c(-c3ccn[nH]3)c1)C1(CCCCC1)C(=O)N2 [V-11, N-(4-(chlorodifluoromethoxy)phenyl)-2′-oxo-4′-(1H-pyrazol-5-yl)spiro[cyclohexane-1,3′-indoline]-6′-carboxamide] | 40 | 8
